The source of these data is paper PMC11770272, “Surface immobilization of single atoms on heteroatom-doped carbon nanospheres through phenolic-mediated interfacial anchoring for highly efficient biocatalysis” (Chemical Science, 2025).

This assay relates to T1, natural horseradish peroxidase (HRP).
T1 construct: gene PRXC1A
Kind of assay: steady-state kinetics, absorbance of oxidized TMB at […] nm. The format is biochemical, Armoracia rusticana. The settings on record: H2O2 as co-substrate, HAc-NaAc buffer pH 3.6, 37 °C.

Regarding `Cc1cc(-c2cc(C)c(N)c(C)c2)cc(C)c1N` [TMB], the Michaelis-Menten constant (Km) turned out to be 1650 µM.
